Measured values as given in US20230303572A1, “18-MC SALT FORMS” (Mind Medicine, Inc., priority 2022, published 2023).
“Also recorded” adds a separate entry of the source. Where a name gives a salt, the structure may show the parent alone.

Tests used:
Format in all cases: physicochemical
[1] = Physical form stability on storage at RT, air drying or exposure to ambient conditions (XRPD); details: for form change after exposure to ambient conditions (XRPD): exposure to ambient conditions for ~30 min; for Form after treatment: metastable forms
Excerpt: (§1) For XRPD analysis, a PANalytical Empyrean and X′ Pert3 X-ray powder diffract meter was used.

[2] = Heating experiments and VT-XRPD (N2 drying, heating, cooling back): form change; details: for Form after heating: solid form by XRPD after heating, cells marked *, # have footnotes that are not shown; for form conversion, summary statement: after desolvation
Excerpt: as §1

[3] = Relative thermodynamic stability of HCl salt forms (desolvation and form conversion data); details: for Form after desolvation: solvates of HCl salt
Experimental: Starting from HCl salt materials with different forms, a total of 100 polymorph screening experiments was performed using different crystallization methods including salt formation by liquid vapor diffusion/slurry at elevated temperature, evaporation at RT/high temperatures, slurry and reverse anti-solvent addition at different temperatures, slow/crash cooling, polymer induced crystallization and grinding. All the resulting solids were isolated for XRPD test, and new forms were further characterized by TGA, DSC, ^1H NMR and HPLC/ IC.
An additional polymorph screening was performed for 18-MC HCl salt.

[4] = after air drying or RT storage, duration not stated
[5] = after storage or heating experiments

COCC[C@H]1CC2CN3CCc4c([nH]c5ccccc45)[C@](C(=O)OC)(C2)[C@H]13 [tosylate Type D, 18-methoxycoronaridine]
form change after exposure to ambient conditions (XRPD) [1]: converted to tosylate Type B
form change after heating (XRPD/VT-XRPD) ([2]; heating to 100° C.): no form change
form change after heating (VT-XRPD) ([2]; heating to 140° C. under N2 protection): an amorphous pattern was observed

COCC[C@H]1CC2CN3CCc4c([nH]c5ccccc45)[C@](C(=O)OC)(C2)[C@H]13 [HCl salt Type B, 18-methoxycoronaridine]
Form after heating [2]: HCl salt Type A
Form after desolvation [3]: HCl salt Type A

COCC[C@H]1CC2CN3CCc4c([nH]c5ccccc45)[C@](C(=O)OC)(C2)[C@H]13 [HCl salt Type V, 18-methoxycoronaridine]
Form after treatment ([1]; Air drying): HCl salt Type A**
form conversion, summary statement [1, 4]: converted to HCl salt Type A
form change after air drying (XRPD) ([1]; air drying for ~3 hours): converted to HCl salt Type A completely

COCC[C@H]1CC2CN3CCc4c([nH]c5ccccc45)[C@](C(=O)OC)(C2)[C@H]13 [HCl salt Type O, 18-methoxycoronaridine]
Form after treatment ([1]; RT storage): HCl salt Type A^#
form conversion, summary statement [1, 4]: converted to HCl salt Type A

COCC[C@H]1CC2CN3CCc4c([nH]c5ccccc45)[C@](C(=O)OC)(C2)[C@H]13 [HCl salt Type C, 18-methoxycoronaridine]
Form after heating [2]: HCl salt Type A
Form after desolvation [3]: HCl salt Type A

COCC[C@H]1CC2CN3CCc4c([nH]c5ccccc45)[C@](C(=O)OC)(C2)[C@H]13 [HCl salt Type P, 18-methoxycoronaridine]
form change after N2 drying (VT-XRPD) ([2]; N2-drying for 20 min at 30° C.): no form change
form conversion, summary statement [2]: converted to HCl salt Type A
form change after heating (XRPD) ([2]; heating to 80° C. and cooling back to RT): no obvious form change
form change after heating (XRPD/VT-XRPD) ([2]; heating to 100° C.): form change to HCl salt Type A
form change after heating (XRPD) ([2]; heating to 150° C.): converted to HCl salt Type A
form change after heating (VT-XRPD) ([2]; heating to 210° C. under N2 protection): amorphous sample was observed
Form after desolvation [3]: HCl salt Type A

COCC[C@H]1CC2CN3CCc4c([nH]c5ccccc45)[C@](C(=O)OC)(C2)[C@H]13 [HCl salt Type E, 18-methoxycoronaridine]
Form after treatment ([1]; Air drying): HCl salt Type A**
Form after heating [2]: HCl salt Type A**

COCC[C@H]1CC2CN3CCc4c([nH]c5ccccc45)[C@](C(=O)OC)(C2)[C@H]13 [HBr salt Type B, 18-methoxycoronaridine]
form conversion, summary statement [1, 5]: could convert to HBr salt Type A
Form change on storage ([1]; storage at RT for ~20 days): *: Partially converted to HBr salt Type A after storage at RT for ~20 days.
form change after storage (XRPD) ([1]; storage at RT for ~20 days): partially converted to HBr salt anhydrate Type A

COCC[C@H]1CC2CN3CCc4c([nH]c5ccccc45)[C@](C(=O)OC)(C2)[C@H]13 [sulfate Type B, 18-methoxycoronaridine]
form conversion, summary statement [1, 4]: converted to sulfate Type E
form change after storage (XRPD) ([1]; storage at RT in a sealed vial for ~12 days): form change to sulfate Type E

COCC[C@H]1CC2CN3CCc4c([nH]c5ccccc45)[C@](C(=O)OC)(C2)[C@H]13 [tosylate Type C, 18-methoxycoronaridine]
form change after storage (XRPD) ([1]; storage at RT for about 2.5 month): form change to tosylate Type B
form change after N2 drying (VT-XRPD) ([2]; N2-drying for 30 min at 30° C.): form change was observed for tosylate Type C. The new form was assigned as tosylate Type D

COCC[C@H]1CC2CN3CCc4c([nH]c5ccccc45)[C@](C(=O)OC)(C2)[C@H]13 [HCl salt Type J, 18-methoxycoronaridine]
Form after treatment ([1]; RT storage): HCl salt Type F^#
Form after heating [2]: HCl salt Type F*

COCC[C@H]1CC2CN3CCc4c([nH]c5ccccc45)[C@](C(=O)OC)(C2)[C@H]13 [HCl salt Type I, 18-methoxycoronaridine]
Form after desolvation [3]: HCl salt Type A

COCC[C@H]1CC2CN3CCc4c([nH]c5ccccc45)[C@](C(=O)OC)(C2)[C@H]13 [tosylate Type H, 18-methoxycoronaridine]
form change after air drying (XRPD) ([1]; air drying for ~3 hours): form change to tosylate Type A
Speculated form (physical stability) ([1]; form characterization summary of tosylate): Metastable

COCC[C@H]1CC2CN3CCc4c([nH]c5ccccc45)[C@](C(=O)OC)(C2)[C@H]13 [HBr salt Type D, 18-methoxycoronaridine]
form conversion, summary statement [1, 5]: could convert to HBr salt Type A
form change after heating (XRPD/VT-XRPD) ([2]; heating to 100° C.): extra peak of HBr salt Type A was observed
form change after heating (XRPD) ([2]; heating to 150° C.): most diffraction peaks of the sample were consistent with HBr salt Type A

COCC[C@H]1CC2CN3CCc4c([nH]c5ccccc45)[C@](C(=O)OC)(C2)[C@H]13 [sulfate Type F, 18-methoxycoronaridine]
physical stability at ambient conditions ([1]; ambient conditions, time not stated): not physically stable
form change after exposure to ambient conditions (XRPD) [1]: converted back to sulfate Type D
form change after heating (XRPD/VT-XRPD) ([2]; heating to 100° C.): remained sulfate Type F

COCC[C@H]1CC2CN3CCc4c([nH]c5ccccc45)[C@](C(=O)OC)(C2)[C@H]13 [HCl salt Type K, 18-methoxycoronaridine]
Form change after treatment ([1]; Exposure to ambient conditions (~50%RH), XRPD form): HCl salt Type F^#

COCC[C@H]1CC2CN3CCc4c([nH]c5ccccc45)[C@](C(=O)OC)(C2)[C@H]13 [HCl salt Type T, 18-methoxycoronaridine]
form conversion, summary statement [2]: converted to HCl salt Type A
form change after heating (XRPD) ([2]; heating to 150° C.): most diffraction peaks were consistent with HCl salt Type A
Form after desolvation [3]: HCl salt Type A

COCC[C@H]1CC2CN3CCc4c([nH]c5ccccc45)[C@](C(=O)OC)(C2)[C@H]13 [HCl salt Type D, 18-methoxycoronaridine]
Form after treatment ([1]; Air drying): HCl salt Type A**
Form after heating [2]: HCl salt Type A*

COCC[C@H]1CC2CN3CCc4c([nH]c5ccccc45)[C@](C(=O)OC)(C2)[C@H]13 [HCl salt Type Q, 18-methoxycoronaridine]
form change after N2 drying (VT-XRPD) ([2]; N2-drying for 20 min at 30° C.): no form change
form conversion, summary statement [2]: converted to HCl salt Type A
form change after heating (VT-XRPD) ([2]; heating to 100° C., 130° C., 160° C. and cooling back to 30° C. under N2 protection): form change to a mixture of HCl salt Type A and freebase Type A
Form after desolvation [3]: HCl salt Type A+freebase Type A

COCC[C@H]1CC2CN3CCc4c([nH]c5ccccc45)[C@](C(=O)OC)(C2)[C@H]13 [HCl salt Type U, 18-methoxycoronaridine]
form conversion, summary statement [2]: converted to HCl salt Type A
form change after heating (XRPD/VT-XRPD) ([2]; heating to 120° C.): an extra peak representative of HCl salt Type A was observed
form change after heating (XRPD) ([2]; heating to 150° C.): most diffraction peaks were consistent with HCl salt Type A
Form after desolvation [3]: HCl salt Type A

COCC[C@H]1CC2CN3CCc4c([nH]c5ccccc45)[C@](C(=O)OC)(C2)[C@H]13 [sulfate Type C, 18-methoxycoronaridine]
form conversion, summary statement [1, 4]: converted to sulfate Type A
form change after air drying (XRPD) ([1]; air drying at RT for ~30 min): converted to sulfate Type A

COCC[C@H]1CC2CN3CCc4c([nH]c5ccccc45)[C@](C(=O)OC)(C2)[C@H]13 [HCl salt Type R, 18-methoxycoronaridine]
form conversion, summary statement [2]: converted to HCl salt Type A
form change after heating (XRPD) ([2]; heating to 170° C. and cooling back to ambient condition): converted to HCl salt Type A
Form after desolvation [3]: HCl salt Type A

COCC[C@H]1CC2CN3CCc4c([nH]c5ccccc45)[C@](C(=O)OC)(C2)[C@H]13 [HCl salt Type G, 18-methoxycoronaridine]
Form after treatment ([1]; RT storage): HCl salt Type A^#
Form after heating [2]: HCl salt Type A**

COCC[C@H]1CC2CN3CCc4c([nH]c5ccccc45)[C@](C(=O)OC)(C2)[C@H]13 [tosylate Type I, 18-methoxycoronaridine]
form change after open dish (XRPD) ([1]; open dish for ~3 hrs): converted back to tosylate Type A with an extra peak of tosylate Type B

COCC[C@H]1CC2CN3CCc4c([nH]c5ccccc45)[C@](C(=O)OC)(C2)[C@H]13 [HBr salt Type C, 18-methoxycoronaridine]
form conversion, summary statement [1, 5]: could convert to HBr salt Type A
form change after heating (XRPD/VT-XRPD) ([2]; heating to 100° C.): peak of HBr salt Type A was observed
form change after heating (XRPD) ([2]; heating to 150° C.): most diffraction peaks were consistent with HBr salt Type A

COCC[C@H]1CC2CN3CCc4c([nH]c5ccccc45)[C@](C(=O)OC)(C2)[C@H]13 [tosylate Type A, 18-methoxycoronaridine]
form change after storage (XRPD) ([1]; storage at RT for ~7 days): peak of tosylate Type B was observed
form change after storage (XRPD) ([1]; storage for 3 weeks): totally converted to tosylate Type B
form change after N2 drying (VT-XRPD) ([2]; N2-drying for 30 min at 30° C.): no form change
form change after heating (XRPD/VT-XRPD) ([2]; heating to 100° C.): a form change was observed, which was assigned as tosylate Type I

COCC[C@H]1CC2CN3CCc4c([nH]c5ccccc45)[C@](C(=O)OC)(C2)[C@H]13 [HCl salt Type A+N, 18-methoxycoronaridine]
form change after storage (XRPD) ([1]; storage at RT for ~21 days): converted to HCl salt Type A completely

COCC[C@H]1CC2CN3CCc4c([nH]c5ccccc45)[C@](C(=O)OC)(C2)[C@H]13 [HCl salt Type L, 18-methoxycoronaridine]
Form after treatment ([1]; RT storage): HCl salt Type A^#
form conversion, summary statement [1, 4]: converted to HCl salt Type A
Form after heating [2]: HCl salt Type A

COCC[C@H]1CC2CN3CCc4c([nH]c5ccccc45)[C@](C(=O)OC)(C2)[C@H]13 [HCl salt Type A, 18-methoxycoronaridine]
thermodynamic stability among HCl salt forms ([3]; at RT): thermodynamically more stable than other anhydrates; also recorded: most thermodynamically stable form
thermodynamic stability among hydrochloride salt forms ([3]; temperature not stated): most thermodynamically stable form
